Laboratory results taken from ChEMBL document CHEMBL3045387, “Synthesis and Fungicidal Activity of New 1, 3, 2-Oxazaphospholidine 2-Sulfides” (1994).

What was measured:
Assay type in all cases: functional
Conditions in all cases: 96 h, read-out: GI
[1] = system: Corticium; experiment: Antimicrobial activity against Corticium sp. assessed as inhibition of mycelial growth on potato dextrose agar at 100 ppm at 27 degC measured after 4 days
[2] = system: Pythium; experiment: Antimicrobial activity against Pythium sp. assessed as inhibition of mycelial growth on potato dextrose agar at 100 ppm at 27 degC measured after 4 days
[3] = system: Corticium; experiment: Antimicrobial activity against Corticium sp. assessed as inhibition of mycelial growth on potato dextrose agar at 1000 ppm at 27 degC measured after 4 days
[4] = system: Pythium; experiment: Antimicrobial activity against Pythium sp. assessed as inhibition of mycelial growth on potato dextrose agar at 1000 ppm at 27 degC measured after 4 days

| Structure (SMILES) | inhibition of growth at 100 ppm [1] | inhibition of growth at 100 ppm [2] | inhibition of growth at 1000 ppm [3] | inhibition of growth at 1000 ppm [4] |
| --- | --- | --- | --- | --- |
| C=CCc1ccc(OP2(=S)N[C@@H](CC(C)C)CO2)c(OC)c1 (some centres undefined) | 0.8% | 9.9% |  |  |
| CC(C)=CCC/C(C)=C/COP1(=S)N[C@@H](Cc2ccccc2)CO1 (some centres undefined) | 28.5% | 4% | 60.4% | 16.9% |
| CC(C)=CCCC(C)CCOP1(=S)N[C@@H](Cc2ccccc2)CO1 (some centres undefined) | 21.1% | 1.6% | 66.8% | 30.8% |
| Cc1ccc(OP2(=S)N[C@@H](Cc3ccccc3)CO2)c(C(C)C)c1 (some centres undefined) | 15.3% | 9.4% | 36% | 58.2% |
| Cc1ccc(C(C)C)c(OP2(=S)N[C@@H](Cc3ccccc3)CO2)c1 (some centres undefined) | 33.8% | 19.8% | 41% | 46% |
| CC(C)=CCC/C(C)=C/COP1(=S)N[C@@H](C)CO1 (some centres undefined) | 22.7% | 20.2% |  |  |
| CC(C)=CCCC(C)CCOP1(=S)N[C@@H](C)CO1 (some centres undefined) | 0% | 0% |  |  |
| Cc1ccc(OP2(=S)N[C@@H](C)CO2)c(C(C)C)c1 (some centres undefined) | 31.7% | 10.8% |  |  |
| Cc1ccc(C(C)C)c(OP2(=S)N[C@@H](C)CO2)c1 (some centres undefined) | 0% | 0% |  |  |
| CC(C)=CCC/C(C)=C/COP1(=S)N[C@@H](C(C)C)CO1 (some centres undefined) | 68.6% | 68.2% |  |  |
| CC(C)=CCCC(C)CCOP1(=S)N[C@@H](C(C)C)CO1 (some centres undefined) | 42.6% | 87.3% |  |  |
| Cc1ccc(OP2(=S)N[C@@H](C(C)C)CO2)c(C(C)C)c1 (some centres undefined) | 0% | 24.3% |  |  |
| Cc1ccc(C(C)C)c(OP2(=S)N[C@@H](C(C)C)CO2)c1 (some centres undefined) | 18.7% | 29.8% |  |  |
| C=CCc1ccc(OP2(=S)N[C@@H](C(C)C)CO2)c(OC)c1 (some centres undefined) | 37.5% | 53.9% |  |  |
| CC(C)=CCC/C(C)=C/COP1(=S)N[C@@H](CC(C)C)CO1 (some centres undefined) | 26.7% | 35.4% | 97.9% | 100% |
| CC(C)=CCCC(C)CCOP1(=S)N[C@@H](CC(C)C)CO1 (some centres undefined) | 26.7% | 24.7% | 82.9% | 53.9% |
| Cc1ccc(OP2(=S)N[C@@H](CC(C)C)CO2)c(C(C)C)c1 (some centres undefined) | 14.6% | 11.7% | 64.3% | 58.2% |
| Cc1ccc(C(C)C)c(OP2(=S)N[C@@H](CC(C)C)CO2)c1 (some centres undefined) | 36.8% | 19.8% | 77.1% | 36.1% |
| CC[C@H](C)[C@H]1COP(=S)(OC/C=C(\C)CCC=C(C)C)N1 (some centres undefined) | 0% | 0% |  |  |
| CC[C@H](C)[C@H]1COP(=S)(OCCC(C)CCC=C(C)C)N1 (some centres undefined) | 0% | 0% |  |  |
| CC[C@H](C)[C@H]1COP(=S)(Oc2ccc(C)cc2C(C)C)N1 (some centres undefined) | 0% | 12.5% |  |  |

| Structure (SMILES) | inhibition of growth at 100 ppm [1] | inhibition of growth at 100 ppm [2] | inhibition of growth at 1000 ppm [3] | inhibition of growth at 1000 ppm [4] |
| --- | --- | --- | --- | --- |
| CC[C@H](C)[C@H]1COP(=S)(Oc2cc(C)ccc2C(C)C)N1 (some centres undefined) | 0% | 3.7% |  |  |
| C=CCc1ccc(OP2(=S)N[C@@H]([C@@H](C)CC)CO2)c(OC)c1 (some centres undefined) | 25.3% | 41.7% |  |  |
| CC1=CCC2CC1C2(C)C (stereo not drawn) [ALPHA-PINENE] | 0.8% | 4% | 46.3% | 0% |
| CC1=CC[C@@H](C(C)(C)O)CC1 [ALPHA-TERPINEOL] | 71.8% | 11.2% | 100% | 100% |
| CC(=O)CCc1ccccc1 [BENZYLACETONE] | 30.5% | 24.5% | 100% | 100% |
| C=C1CCC2CC1C2(C)C (stereo not drawn) [BETA-PINENE] | 1.2% | 0% | 16.3% | 2.2% |
| CC1(C)C2CCC1(C)C(O)C2 (centres undefined) [BORNEOL] | 27.7% | 21.1% | 100% | 100% |
| CC12CCC(CC1=O)C2(C)C (centres undefined) [CAMPHOR] | 0.4% | 0% | 22.1% | 9.3% |
| CC(C)=CCCC(C)CCO (centres undefined) [CITRONELLOL] | 23.9% | 68.9% | 100% | 100% |
| CC(C)c1ccc(C=O)cc1 [CUMINALDEHYDE] | 22% | 14% | 100% | 100% |
| COC(=O)/C=C/c1ccccc1 [E-METHYL CINNAMATE] | 54% | 66% | 100% | 100% |
| CC12CCC(CC1)C(C)(C)O2 [EUCALYPTOL] | 8.3% | 0% | 0% | 0.4% |
| C=CCc1ccc(O)c(OC)c1 [EUGENOL] | 67.6% | 92.7% | 100% | 100% |
| CC(C)=CCC/C(C)=C/CO [GERANIOL] | 71.8% | 63.3% | 100% | 100% |
| Cc1ccc(O)c(C(C)C)c1 [ISOTHYMOL] | 72.4% | 94.3% | 100% | 100% |
| C=CC(C)(O)CCC=C(C)C (centres undefined) [LINALOOL] | 46.9% | 21.3% | 93.9% | 67.4% |
| CC1(C)C2CC=C(CO)C1C2 (centres undefined) [MYRTENOL] | 56% | 41% | 100% | 100% |
| Cc1ccc(C(C)C)cc1 [P-CYMENE] | 14.4% | 0% | 13.6% | 0.2% |
| CC1=CCC(O)(C(C)C)CC1 (centres undefined) [TERPINEOL] | 0% | 7.1% | 98.3% | 98.3% |
| Cc1ccc(C(C)C)c(O)c1 [THYMOL] | 71% | 93% | 100% | 100% |
